One series addresses T1, RNase A (Bos taurus, UniProt P61823).
T1 sequence (P61823 27-150): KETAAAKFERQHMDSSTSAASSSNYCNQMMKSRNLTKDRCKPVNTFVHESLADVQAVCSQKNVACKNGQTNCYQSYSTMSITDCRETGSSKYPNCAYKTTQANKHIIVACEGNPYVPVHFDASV
The following applies: at 10 eq; of eleven carboxylates; cited from earlier work.

The conditions of series [1]: acetonitrile and acetonitrile/aqueous buffer (3:1 v/v); cited from earlier work.
The test system of another series is CHO K1 cells. Nature of the series: Internalization of esterified GFP by CHO K1 cells (flow cytometry, confocal microscopy). The format is cell-based, Chinese hamster. The following applies: 15 μM GFP, 37° C., 2 h, versus unlabeled GFP. An excerpt:
FIG. 8 is a graph showing quantification of internalization of labeled versus unlabeled GFP by CHO K1 cells using flow cytometry measuring median fluorescence intensity. Single cells were sorted based on forward scatter-side scatter measurements, and live cells were sorted using 7AAD (7-amino-actinomycin D) stain.
FIGS. 9A-C illustrate microscopy images of uptake of esterified GFP (green) by CHO K1 cells. FIG. 9A: Not esterified. FIG. 9B: Esterified with α-diazo-4-methylphenyl-N-propargylacetamide. FIG. 9C: Esterified with α-diazo-4-methylphenyl-N,N-dimethylacetamide. Cell nuclei are stained with Hoechst 33342 (blue).
Chinese hamster ovary (CHO) K1 cells were incubated at 37° C. for 2 h in F-12K medium (which was supplemented with penicillin/streptomycin) containing either unlabeled or labeled GFP (15 μM). […] Individual cells were imaged by confocal microscopy for two of the diazo compounds.
For orientation: A flow cytometer gives signals particle by particle.

For series [2] the following is noted: measured in dimethylsulfoxide; cited from earlier work.

Each structure is given as a SMILES string.

The term pKa denotes the pH at which an ionisable group is half protonated.

Take `[N-]=[N+]=C1c2ccccc2-c2ccccc21` [9-diazofluorene]: on RNase A, the “average number of carboxylates labeled in RNase A” value is reported as “three”. For the same compound, in series [1], the “formation of the desired ester with carboxylic acids” value is on record as “gave the desired ester in aqueous medium”.

Consider `CNC(=O)C(=[N+]=[N-])c1ccc(C)cc1` [Diazo compound 11, α-diazo-4-methylphenyl-N-methylacetamide], for which the “uptake of GFP esterified with the diazo compound into CHO K1 cells” value with CHO K1 cells is on record as “enhanced”.

As to `Cc1ccc(C(=[N+]=[N-])C(=O)N(C)C)cc1` [Diazo compound 12, α-diazo-4-methylphenyl-N,N-dimethylacetamide], the “uptake of GFP esterified with the diazo compound into CHO K1 cells” value in the series with CHO K1 cells is “enhanced”.

With `CCOC(=O)C(=[N+]=[N-])C(=O)OCC` [diethyl 2-diazomalonate], the “formation of the desired ester with carboxylic acids” value in series [1] is on record as “unreactive”.

With `CCOC(=O)CC(=O)OCC` [diethylmalonate], the pKa in series [2] is given as 16.4.

Values taken from patent US12110523B2, “Reagents and methods for esterification” (Wisconsin Alumni Research Foundation, priority 2015, dated 2024).
